The subject of data set [1] is Monocotyledonous and dicotyledonous test plants. Briefly: Post-emergence herbicidal action. It counts as in vivo. Conditions: 2000 g/ha, sprayed in 4- to 6-leaf stage, evaluated after approximately 18 days, nine-step scale. The gist of the method: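 Scoring uses a 1–9 scale (1 complete damage, 9 no effect), read roughly 18 days post-application. Compounds were applied post-emergence at 4–6 leaves, as aqueous suspension (25% wettable powder) or emulsion (25% emulsion concentrate), at 250 g or 2 kg a.i./ha in 500 l water/ha.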

The test system is the same in data set [2]. Description: Herbicidal action before emergence of the plants (pre-emergence action). Type of data set: in vivo. Conditions: 2000 g/ha, evaluated after 3 weeks, nine-step scale. In outline:
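Sprayed onto soil immediately after sowing as WP suspension or EC emulsion at 2 kg or 250 g a.i./ha (500 l water/ha). Greenhouse growth for 3 weeks, then scored on a nine-step scale (1 = complete damage, 9 = no effect).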

We go through three molecules from patent US6673938B1, “Substituted pyridine herbicides” (Syngenta Participations AG, priority 1998, dated 2004).

By melting point is commonly meant the temperature of the solid-liquid transition. As for `Cc1nc(C(F)(F)F)ccc1C(=O)C1=C(O)C(C)(C)CCC1=O` [Compound A2-B24, 3-Hydroxy-4,4-dimethyl-2-(2-methyl-6-trifluoromethylpyridine-3-carbonyl)cyclohex-2-enone], the melting point was 75 to 76 °C. Besides, in data set [1], the “Post-emergence action, Ipomoea” value came out at 1; the “Post-emergence action, Lolium” value is 2; the “Post-emergence action, Setaria” value was 2; the “Post-emergence action, Sinapis” value is 1. Moreover, in data set [1], the “Post-emergence action, Solanum” value was 2 and the “Post-emergence action, Stellaria” value came to 2. Besides, in data set [2], the “pre-emergence action, Cyperus” value was 1; the “pre-emergence action, Ipomoea” value came out at 1; the “pre-emergence action, Setaria” value is listed as 1; the “pre-emergence action, Sinapis” value is on record as 2. Moreover, in data set [2], the “pre-emergence action, Solanum” value is reported as 1 and the “pre-emergence action, Stellaria” value is listed as 1.

Molecule `Cc1nc(C(F)(F)F)ccc1C(=O)C1=C(O)CCCC1=O` [Compound A2-B1, 3-hydroxy-2-(2-methyl-6-trifluoromethylpyridine-3-carbonyl)cyclohex-2-enone] yielded a melting point of 90 to 92 °C. In data set [1], the “Post-emergence action, Ipomoea” value worked out at 1; the “Post-emergence action, Lolium” value is 2; the “Post-emergence action, Setaria” value amounted to 1; the “Post-emergence action, Sinapis” value came out at 1. In data set [1], the “Post-emergence action, Solanum” value came to 1 and the “Post-emergence action, Stellaria” value was 2. For the same molecule, in data set [2], the “pre-emergence action, Cyperus” value turned out to be 2; the “pre-emergence action, Ipomoea” value is 2; the “pre-emergence action, Setaria” value is given as 1; the “pre-emergence action, Sinapis” value was 2. Also, in data set [2], the “pre-emergence action, Solanum” value came out at 2 and the “pre-emergence action, Stellaria” value is 1.

In turn, `Cc1nc(C(F)(F)F)ccc1C(=O)C1=C(O)C(C)(C)C(=O)C(C)(C)C1=O` [Compound A2-B354, 5-hydroxy-2,2,6,6-tetramethyl-4-(2-methyl-6-trifluoromethylpyridine-3-carbonyl)cyclohex-4-ene-1,3-dione] displayed a melting point of 139 to 140 °C. In data set [1], the “Post-emergence action, Ipomoea” value is on record as 2; the “Post-emergence action, Lolium” value is listed as 2; the “Post-emergence action, Setaria” value stood at 2; the “Post-emergence action, Sinapis” value amounted to 2. In addition, in data set [1], the “Post-emergence action, Solanum” value was 2 and the “Post-emergence action, Stellaria” value turned out to be 2. In data set [2], the “pre-emergence action, Cyperus” value is 1; the “pre-emergence action, Ipomoea” value amounted to 1; the “pre-emergence action, Setaria” value came out at 1; the “pre-emergence action, Sinapis” value was 1. Also, in data set [2], the “pre-emergence action, Solanum” value turned out to be 1 and the “pre-emergence action, Stellaria” value was determined as 2.
